Assays:
Rattus norvegicus [1] = test: Acute Anti-inflammatory activity in Rattus norvegicus albino (rat) assessed as inhibition of carrageenan-induced paw edema at 200 mg/kg, po administered 1 hr after carrageenan challenge measured after 5 hr relative to control; format: functional
Mus musculus [2] = test: Acute toxicity in Mus musculus albino (mouse) assessed as mortality up to 2000 mg/kg, po after 24 hr; format: organism-based; design: dose 2000 mg/kg, route oral; conditions: in vivo
Rattus norvegicus [3] = test: Acute Anti-inflammatory activity inRattus norvegicus albino (rat) assessed as inhibition of carrageenan-induced paw edema at 200 mg/kg, po administered 1 hr after carrageenan challenge measured after 3 hr relative to control; format: functional
[4] = Acute toxicity in po dosed Mus musculus albino (mouse) up to 24 hr; format: organism-based; conditions: in vivo
Mus musculus [5] = test: Acute toxicity in Mus musculus albino (mouse) assessed as alertness, touch response, and restlessness at 10 to 2000 mg/kg, po after 24 hr; format: organism-based; design: dose 10-2000 mg/kg, route oral; conditions: in vivo
Rattus norvegicus [6] = test: Toxicity inRattus norvegicus albino (rat) assessed as ulcer index at 200 mg/kg, po after 7 hr relative to control; format: organism-based; design: dose 200 mg/kg, route oral; conditions: in vivo
Mus musculus [7] = test: Analgesic activity in Mus musculus albino (mouse) assessed as protection against acetic acid-induced writhing at 200 mg/kg, po administered 30 min before acetic acid challenge measured after 15 min relative to control; format: functional
Mus musculus [8] = test: Analgesic activity in Mus musculus albino (mouse) assessed as protection against acetic acid-induced writhing at 135 mg/kg, po administered 30 min before acetic acid challenge measured after 15 min relative to control; format: functional
Rattus norvegicus [9] = test: Acute Anti-inflammatory activity in Rattus norvegicus albino (rat) assessed as inhibition of carrageenan-induced paw edema at 13.5 mg/kg, po administered 1 hr after carrageenan challenge measured after 5 hr relative to control; format: functional
Rattus norvegicus [10] = test: Acute Anti-inflammatory activity in Rattus norvegicus albino (rat) assessed as inhibition of carrageenan-induced paw edema at 13.5 mg/kg, po administered 1 hr after carrageenan challenge measured after 3 hr relative to control; format: functional

| SMILES | inhibition in vivo at 200 mg/kg (Rattus norvegicus [1]) | Activity (Mus musculus [2]) | inhibition in vivo at 200 mg/kg (Rattus norvegicus [3]) | MTD at 24 h [4] | Activity (Mus musculus [5]) | UI (Rattus norvegicus [6]) | Activity (Mus musculus [7]) | Activity (Mus musculus [8]) | inhibition in vivo at 13.5 mg/kg (Rattus norvegicus [9]) | inhibition in vivo at 13.5 mg/kg (Rattus norvegicus [10]) |
| --- | --- | --- | --- | --- | --- | --- | --- | --- | --- | --- |
| O=C(CSc1nnc(-c2ccccc2O)o1)c1cc2ccccc2oc1=O | 48.7% | Non-toxic | 46.3% | 200 mg/kg | Toxic | – | – | – | – | – |
| O=C(CSc1nnc(Cc2ccccc2Nc2c(Cl)cccc2Cl)o1)c1cc2ccccc2oc1=O | 64.5% | Non-toxic | 81.3% | 200 mg/kg | Toxic | 1.7 | 68% | – | – | – |
| O=C(Cc1ccccc1Nc1c(Cl)cccc1Cl)OCc1nnc(SCC(=O)c2cc3ccccc3oc2=O)o1 | 26.3% | Non-toxic | 37.5% | 200 mg/kg | Toxic | – | – | – | – | – |
| C[C@H](c1ccc(-c2ccccc2)c(F)c1)c1nnc(SCC(=O)c2cc3ccccc3oc2=O)o1 | 61.6% | Non-toxic | 74.9% | 200 mg/kg | Toxic | 2.3 | 60% | – | – | – |
| CC(c1cccc(C(=O)c2ccccc2)c1)c1nnc(SCC(=O)c2cc3ccccc3oc2=O)o1 (stereo not given) | 60.9% | Non-toxic | 65.4% | 200 mg/kg | Toxic | 3.2 | 73% | – | – | – |
| COc1ccc2c(c1)c(Cc1nnc(SCC(=O)c3cc4ccccc4oc3=O)o1)c(C)n2C(=O)c1ccc(Cl)cc1 | 51.3% | Non-toxic | 56.9% | 200 mg/kg | Toxic | – | – | – | – | – |
| O=C(CSc1nnc(C2CCn3c(C(=O)c4ccccc4)ccc32)o1)c1cc2ccccc2oc1=O (stereo not given) | 71.3% | Non-toxic | 67.4% | 200 mg/kg | Toxic | 4.4 | 54% | – | – | – |
| CC(=O)Nc1ccc(OCc2nnc(SCC(=O)c3cc4ccccc4oc3=O)o2)cc1 | 43.4% | Non-toxic | 56.3% | 200 mg/kg | Toxic | – | – | – | – | – |
| CC(C)Cc1ccc(C(C)c2nnc(SCC(=O)c3cc4ccccc4oc3=O)o2)cc1 (stereo not given) | 46.1% | Non-toxic | 45% | 200 mg/kg | Toxic | – | – | – | – | – |
| CC(=O)Oc1ccccc1C(=O)O [ASPIRIN] | – | – | – | – | – | – | – | 69% | – | – |
| O=C(O)Cc1ccccc1Nc1c(Cl)cccc1Cl [DICLOFENAC] | – | – | – | – | – | 5.5 | – | – | 75% | 79.5% |
| CC(C(=O)O)c1ccc(-c2ccccc2)c(F)c1 (stereo not given) [FLURBIPROFEN] | – | – | – | – | – | 5.3 | – | – | – | – |
| CC(C(=O)O)c1cccc(C(=O)c2ccccc2)c1 (stereo not given) [KETOPROFEN] | – | – | – | – | – | 4.6 | – | – | – | – |
| O=C(c1ccccc1)c1ccc2n1CCC2C(=O)O (stereo not given) [KETOROLAC] | – | – | – | – | – | 4.9 | – | – | – | – |

Source: ChEMBL document CHEMBL3046047, “Synthesis and evaluation of anti-inflammatory and analgesic activity of 3-[(5-substituted-1,3,4-oxadiazol-2-yl-thio)acetyl]-2H-chromen-2-ones” (Med Chem Res, 2012)
